This series relates to rat. The conditions noted are these: in vivo.

As to `NN` [Hydrazine], the LD50rat is recorded as 60 mg/kg.

Turning to `NNCCO.O=[N+]([O-])O` [HEHN, 2-hydroxyethyl hydrazinium nitrate], the LD50rat is given as 325 mg/kg.

Values taken from patent publication US20140190599A1 (priority 2004, published 2014).
